US12251410B2, “Anticancer trail-targeted plant virus particles” (CASE WESTERN RESERVE UNIVERSITY, priority 2017, dated 2025)
“Also recorded” adds a separate entry of the source.

Key:
[1] = background statement; cited from earlier work
[2] = system: subcutaneous MDA-MB-231 tumors; experiment: Treatment of MDA-MB-231 xenografts in athymic nude mice; format: in vivo, mouse
Method: FIGS. 3(A-C) are graphs and images illustrating treatment of MDA-MB-231 xenografts in an athymic nude mouse model. 6-week-old female NCR nu/nu mice were injected subcutaneously into the right flank with 2×10^6 cells; treatment began when tumor volume reached 100-150 mm^3, approximately 2 weeks after tumor cell inoculation. […] 20 μL PBS or corresponding particle amount of PVXNi were injected as controls. Tumor volume was normalized at the initial day. Data were expressed as expressed as means+SD. (A) Tumor growth curve during treatment. (B) Tumor volume distribution in each group during treatment. (C) Representative of isolated tumor tissues after treatment.
Treatment started when the tumor volume reached 100-150 mm^3. […] While we envision systemic administration for clinical applications, we started here by evaluating intratumoral treatments to focus on the question as to whether PVX-delivered HisTRAIL would outperform free HisTRAIL; the intratumoral treatment allows one to precisely control and match the dosing, and, thus, eliminates confounding factors from varying biodistribution. […]
The animal study was carried using an IACUC-approved protocol. […] Tumors were measured daily and the volume was calculated using the formula v=(l×w^2)/2, where l is the length and w is the width of tumor. […] All results are expressed as means±SD, calculated by GraphPad Prism. […]

caspase-3/7 = experiment: Caspase-Glo 3/7 assay in MDA-MB-231 cells; format: cell-based; settings: 20 ng/mL HisTRAIL, 3 h
Excerpt: (§1) TRAIL-DR4/5 receptor binding activates caspase-dependent apoptosis. Specifically, TRAIL-DR4/5 receptor binding induces receptor oligomerization, followed by the recruitment of FAS-associated protein with death domain (FADD) and pro-caspase-8 to form a functional death-inducing signaling complex (DISC) at the plasma membrane. Subsequently, caspase-8 is activated and released into the cytosol, where it cleaves and activates caspase-3 or -7 to execute the apoptosis in cancer cells (FIG. 4). […] The drugs were incubated with MDA-MB-231 cells for 3 h before adding reagents from Caspase-Glo 8 and Caspase-Glo 3/7 Assay Kit. The assay was performed as per manufacturer's instructions.
(§2) Determination of levels of activated caspase-8 and caspase-3/7 MDA-MB-231 cells were seeded at 5,000 cells per well in a white-walled 96-well luminometer microplate one day prior to treatment. […] Non-treated cells were used as control. Samples were prepared in triplicate. Caspase-Glo 8 assay kit and Caspase-Glo 3/7 assay kit (Promega) were used to determine the level of activated caspases. Briefly, the reagent causes cell lysis, followed by caspase cleavage of the substrate and aminoluciferin which produces a luminescent signal in the presence of luciferase and ATP from the kit. Luminescence was read by the Tecan infinite-M200 plate reader to determine the proportional activated level of caspase 8- and 3/7.

BT-549 cell line (TNBC) = experiment: MTT cytotoxicity assay, BT-549; format: cell-based; settings: 12 h incubation, normalized to TRAIL, GraphPad Prism
Method: (§3) Herein, a panel of triple negative breast cancer (TNBC) cell lines, MDA-MB-231, HCC-38, and BT-549, were used.
(§4) Triple negative breast cancer cell lines MDA-MB-231, HCC-38, and BT-549 cell lines (provided by Prof. Ruth Keri, Case Western Reserve University) and HER-2 amplified breast cancer cell line SK-BR-3 (ATCC). MDA-MB-231, HCC-38, BT-549, and SK-BR-3 were cultured in Dulbecco's modified Eagle's medium (DMEM) and Roswell Park Memorial Institute (RPMI) 1640 medium without or with insulin (0.023 IU/mL final concentration), and McCoy's 5A medium, respectively. All media were supplemented with 10% (v/v) fetal bovine serum (FBS) and 1% (v/v) penicillin/streptomycin. All cells were maintained at 37° C. and 5% CO2.
(§5) Cells (MDA-MB-231, HCC-38, BT-549, and SK-BR-3) were seeded at 5,000 cells per well in culture medium in 96-well plates 1 day prior to treatment. […] Samples were prepared in triplicate and each assay was performed at least twice. […] Following incubation, cells were washed with PBS, pH 7.4 and fresh medium was replenished; then 10 μL MTT reagent was added as per manufacturer's instructions. Absorbance was determined using the Tecan infinite-M200 plate reader.

[3] = system: SK-BR-3, HER2-amplified breast cancer cell line; experiment: MTT cytotoxicity assay, SK-BR-3; format: cell-based; settings: HER-2 amplified breast cancer cell line
Method: Data are expressed as means±SD.
as §3, §4, §5

HCC-38 cell line (TNBC) = experiment: MTT cytotoxicity assay, HCC-38; format: cell-based; settings: 12 h incubation, normalized to TRAIL, GraphPad Prism
Method: as §3, §4, §5

[4] = system: MDA-MB-231 triple negative breast cancer cell line; experiment: MTT cytotoxicity assay, MDA-MB-231; format: cell-based; settings: 12 h incubation, normalized to TRAIL, GraphPad Prism
Method: as §3, §4, §5

caspase-8 = experiment: Caspase-Glo 8 assay in MDA-MB-231 cells; format: cell-based; settings: 20 ng/mL HisTRAIL, 3 h
Excerpt: as §1, §2

| Substance | potency compared to cisplatin, carboplatin and oxalatoplatin [1] | average relative tumor volume increase vs. starting volume ([2]; day 30 post first treatment, intratumoral every 2 days, 5 μg His-TRAIL/injection (PVX-Ni at corresponding particle amount)) | tumor growth inhibition (in words) ([2]; intratumoral, athymic nude mice with MDA-MB-231 tumors, vs PBS control) | caspase 3/7 increase vs. PBS controls (caspase-3/7) | IC50 values, BT-549 (BT-549 cell line (TNBC)) | cell killing / apoptosis induction in SK-BR-3 [3] | IC50 values, HCC-38 (HCC-38 cell line (TNBC)) | IC50 values, MDA-MB-231 [4] | IC50 values, MDA-MB-231 ([4]; listed as HiTRAIL) | level of caspase 8, increase compared to PBS control (caspase-8) |
| --- | --- | --- | --- | --- | --- | --- | --- | --- | --- | --- |
| phenanthriplatin | 40 × |  |  |  |  |  |  |  |  |  |
| HisTRAIL: Recombinant human TRAIL (aa 114-281) with N-terminal His-tag and thrombin cleavage sequence, expressed in ClearColi BL21(DE)3 |  | 2.53 fold | effective inhibition | 1.5 fold | 543.0 ng/mL | Neither PVX-HisTRAIL nor HisTRAIL did induce apoptosis; also recorded: did not show cell killing efficacy | 367.2 ng/mL | 86.6 ng/mL | 86.8 ng/mL | 1.38 fold |
